The conditions of data set [1]: cited from earlier work.
The conditions of data set [2]: free ketamine, intraperitoneal injection in rat; cited from earlier work.
The conditions of data set [3]: three infusions per week; eight of nine subjects; cited from earlier work.
The nature of data set [4]: PK study of liposomal ketamine formulation and free ketamine after single subcutaneous injection. The protocol: Blood samples were collected at 15 min, 0.5, 1, 2, 4, 6, 8, 24 and 48 hours post-injection.
For data set [5] the following is noted: free ketamine IV infusion 10 mg/kg/min over 5 min (50.0 mg/kg), Wistar rats; cited from earlier work.
For data set [6] the following is noted: cited from earlier work. This is another data set of the same source.
The conditions of data set [7]: oral administration; cited from earlier work.
For data set [8] the following is noted: 3 intravenous infusions, 3-5 days interval; cited from earlier work.
The conditions of data set [9]: intravenous; of the eight patients enrolled; cited from earlier work.
The mark [10] stands for this setting: female, Sprague-Dawley, rat, plasma, sc, 5 mg/kg.
The mark [11] stands for this setting: free ketamine SC 5.0 mg/kg, rat plasma.

The structures appear in SMILES notation. Counter-ions that a name gives are not always drawn. Like-named read-outs stand apart in the source and are kept apart here.

Regarding `CNC1(c2ccccc2Cl)CCCCC1=O` (stereo not drawn) [Free Ketamine, ketamine hydrochloride], the “patients in whom the therapeutic response was maintained” value in [1] (for a week after a single intravenous infusion) was 35%. In addition, the “patients with >50% decrease in Hamilton Depression Rating Scale (HDRS) score” value in data set [1] (one day after a single intravenous infusion, 17 patients) is on record as 71%. In addition, the half-life (in general, how long it takes for the measured level to halve) in [2] is 78 min. In addition, the “time to relapse after the final intravenous infusion” value in data set [3] is on record as not above 19 days. In [4] (setting [10]), the total exposure AUC(0-inf) (commonly the area under the concentration-time curve extrapolated to infinity) came to 0.314 µg·h/mL; the exposure AUC(0-t) (as a rule, the area under the concentration-time curve up to a stated or last time point) was 0.305 µg·h/mL; the highest concentration (Cmax) (in general, the peak of the concentration-time curve) is 0.19 µg/mL; the half-life is 46.2 min. In data set [4] (setting [11]), this molecule registered an AUC0-inf/dose of 62.9, an AUC0-t/dose of 61.0 and a Cmax/dose of 38.0. In data set [4] (free ketamine SC, FIG. 1), the “time post injection at which ketamine was undetectable in plasma” value was 4 h. Further, the “t1/2” value in data set [5] was 37.8 min. Besides, the oral bioavailability in data set [6] is recorded as 17%. For the same molecule, the “patients showing improvement of mood symptoms” value in data set [7] is “approximately 30%”.

As for `CN1[C@@H]2C[C@@H](OC(=O)[C@H](CO)c3ccccc3)C[C@H]1[C@@H]1O[C@@H]12` [Free Scopolamine, scopolamine hydrobromide trihydrate], in [8], the “persistence of clinical improvement following the final infusion” value is given as “more than 2 weeks”. Further, in data set [9], the “patients remitted to the nondepressed range (MADRS score 10)” value is on record as 3 and the “patients with a 50% or greater reduction in MADRS scores” value is listed as “five”.
